Legend:
mammals = settings: in vivo; cited from earlier work
one-celled algae = settings: in vivo; cited from earlier work
[1] = tested on: circadian rest/activity cycle; settings: cited from earlier work
rest/activity clock = settings: cited from earlier work
rats and mice = settings: cited from earlier work
fish and tadpoles = settings: cited from earlier work
[2] = tested on: Major Depressive Disorder; assay: proposed treatment of Major Depressive Disorder with deuterium oxide/scopolamine solution; format: in vivo, human; settings: Major Depressive Disorder subjects; proposed experiment
humans [3] = settings: cited from earlier work
[4] = in vivo; cited from earlier work
humans [5] = settings: acute treatment; 1% of total body water versus 15% toxic

[2H]O[2H] [deuterium oxide]
drinking water concentration of deuterium oxide safe long term (mammals): 5% | deuterium oxide concentration survived long-term (one-celled algae): 100% | time for chronomutagenic effect to take effect ([1]; mice, 5% deuterium oxide, Dowse 1972): ≤ 24 h | increase in period length of the activity rest cycle ([1]; white mice, maximum 30% deuterium oxide dose administered, Suter and Rawson 1968): ≤ 6% | deuterium oxide concentration at which circadian rhythm began to fluctuate (rest/activity clock; hamsters, Richter 1977): 5% | drinking-water deuterium oxide concentration at which rest/activity cycle was freed from entrainment by light/dark (rest/activity clock; hamsters, Richter 1977): 10% | slowing of circadian rhythms per 5% deuterium oxide concentration increase in total body water (rest/activity clock; hamsters, on average, linear response, no lower threshold): about 1% | deuterium oxide concentration at which circadian rhythm began to fluctuate, one hamster (rest/activity clock; one hamster, Richter 1977): 1% | body water replacement at which intoxication signs and symptoms occur (rats and mice; in vivo): over 15% | deuterium oxide concentration recommended as safe long term (rats and mice; in vivo): 5% | body water deuterium oxide concentration producing coma and then death (rats and mice; rats and mice): 30-35% | heavy water concentration survived long-term (fish and tadpoles): 30% | predicted time for treatment regimen to take effect [2]: ≤ 2 days | concentration in human fluids found not to be toxic over short time periods (humans [3]; humans, Wallace 1995): ≤ 23% | acute replacement of total body water with no evident adverse effects (humans [3]; in vivo): 15-23% | adverse effects (humans [3]; in vivo): no adverse effects | adverse effects after one liter (humans [3]; in vivo): severe vertigo with emesis | deuterium oxide concentration considered safe long term (humans [3]; in vivo): 1% | dose at which positional ocular nystagmus was observed (humans [3]; in vivo): 25 to 50 mL | duration of nystagmus (humans [3]; in vivo): up to 140 minutes | harmful effects in babies (humans [3]; in vivo): no observed harmful effects | onset of nystagmus post ingestion (humans [3]; in vivo): about 20 minutes | onset of vertigo after dose (humans [3]; in vivo): 30 min | reactions to deuterium oxide (humans [3]; in vivo): short-term vertigo in two of the subjects | sensitivity of humans to toxic effects compared to mice (humans [3]; in vivo): roughly 5 times | threshold dosage for noticeable side-effects (humans [3]; in vivo): 70 to 140 g | total body water concentration considered toxic threshold (humans [3]; in vivo): ≥ 15% | elimination half-life [4]: up to 10 days | metabolites [4]: no metabolites | estimated Therapeutic Index (ratio of toxic dose to therapeutic dose) (humans [5]): about 15
